Test results reported in patent US12545652B2, “Crystalline forms of a TYK2 inhibitor” (Sareum Limited, priority 2020, dated 2026).
“Also recorded” adds a separate entry of the source. Like-named read-outs stand apart in the source and are kept apart here. Blank lines part the entries; values can stand above or below the compound they belong to.

Assays:
[1] = Hepatocyte stability assay, mouse; type: in vitro ADME; conditions: male, CD-1, pooled hepatocytes
Experimental: (§1) Test and control compounds were incubated with hepatocytes at 37° C. Aliquots were removed at 6 timepoints over a one hour period. Samples were centrifuged and the supernatant fractions analysed for parent compound by mass spectrometry (LC-MS/MS).
(§2) The amount of compound remaining (expressed as %) was determined from the MS response in each sample relative to that in the T=0 samples, and used to determine the half-life and intrinsic clearance of the compound.

[2] = Hepatocyte stability assay, dog; type: in vitro ADME; conditions: male, Beagle, pooled hepatocytes
Experimental: as §1, §2

[3] = Hepatocyte stability assay, rat; type: in vitro ADME; conditions: male, Sprague-Dawley, pooled hepatocytes
Experimental: as §1, §2

[4] = system: pSTAT3 in IL-22 stimulated HT29 cells; experiment: pSTAT3 inhibition in response to IL-22 stimulation in serum starved HT29 cells; type: cell-based; conditions: Homo sapiens, HT-29
Experimental: HT29 cells were serum starved overnight before the four test compounds were diluted to generate a 9-point semi-log dose dilution with a top concentration of 10 μM, plus vehicle control. HT29 cells were incubated with the test compounds for 20 minutes at 37° C. HT29 cells were incubated for a further 15 minutes with 10 ng/ml human IL-22 before cells were fixed with 4% PFA for 10 minutes, and 90% methanol for 30 minutes before being labelled with a phospho-STAT3Y705 antibody (CST #9145). Cells were rinsed three times using 0.5% BSA/PBS solution before being incubated with Alexa-488 anti-rabbit secondary antibodies.
Mean fluorescence intensity of phospho-STAT3 in single cells was analysed by flow cytometry using an Intellicyt iQue instrument and FlowJo software. The IC50 was determined using a four-parameter analysis following removal of background signal and normalisation to the DMSO control.

[5] = Hepatocyte stability assay, human; type: in vitro ADME; conditions: both sexes, pooled hepatocytes; for half-life: human
Experimental: as §1, §2

TYK2 kinase = TYK2 kinase (Homo sapiens (Human), UniProt P29597); experiment: TYK2 kinase inhibition assay (33P-ATP filter binding, Reaction Biology); type: biochemical; conditions: ratio of IC50 to TYK2 IC50
Experimental: (§3) The compound of the formula (1) was assayed for its ability to inhibit TYK2 kinase and other JAK kinases.
(§4) Substrates and kinases used in the assays are identified in Table 12 below.
(§5) Kinase assays were performed at Reaction Biology Corp., Malvern, Pennsylvania, USA, using the general procedure set out below. In the assays, the ATP concentration was 100 μM and the top compound concentrations were 10 μM.
(§6) Note that the TYK2 and JAK kinase data in Table 7 on page 61 of WO 2015/032423 were generated using an assay in which the ATP concentration was 10 μM whereas, as indicated above, the assay described in the protocol below used an ATP concentration of 100 μM. […]

JAK2 = JAK2 kinase inhibition assay (33P-ATP filter binding, Reaction Biology); type: biochemical
Experimental: as §3, §4, §5, §6

JAK1 = JAK1 (Homo sapiens (Human), UniProt P23458); experiment: JAK1 kinase inhibition assay (33P-ATP filter binding, Reaction Biology); type: biochemical; conditions: ratio of IC50 to TYK2 IC50
Experimental: as §3, §4, §5, §6

[6] = Solubility at 25° C. by HPLC of filtrates after equilibration of Form A in solvents; type: physicochemical; conditions: for solubility: 25 °C, organic solvent or mixture, thermodynamic from solid
JAK3 = JAK3 (Homo sapiens (Human), UniProt P52333); experiment: JAK3 kinase inhibition assay (33P-ATP filter binding, Reaction Biology); type: biochemical
Experimental: as §3, §4, §5, §6

[7] = Dynamic vapour sorption (DVS); type: physicochemical
Experimental: Sorption isotherms were obtained using a Hiden Isochema moisture sorption analyser (model IGAsorp), controlled by IGAsorp Systems Software V6.50.48. The sample was maintained at a constant temperature (25° C.) by the instrument controls. The humidity was controlled by mixing streams of dry and wet nitrogen, with a total flow of 250 ml·min^−1. The instrument was verified for relative humidity content by measuring three calibrated Rotronic salt solutions (10-50-88%). The weight change of the sample was monitored as a function of humidity by a microbalance (accuracy +/−0.005 mg). A defined amount of sample was placed in a tared mesh stainless steel basket under ambient conditions. A full experimental cycle typically consisted of three scans (sorption, desorption and sorption) at a constant temperature (25° C.) and 10% RH intervals over a 0-90% range (60 minutes for each humidity level).

[8] = Compression stability test (10×10^4N force); type: physicochemical
Experimental: Compression stability tests were carried out on samples from two batches of crystalline Form A and samples from two batches of Crystalline Form B. One pair of samples of Form A and Form B was subjected to compression under 10×10^4N force for 23 and 23¾ hours respectively to assess the impact upon form fate and chemical stability.
The other pair of samples of Form A and Form B was subjected to similar compression pressures over an extended duration of 7 days to assess the impact of prolonged compression force upon form fate and chemical stability.

[9] = IL-22 stimulated serum starved HT29 cells, read-out: pSTAT3 inhibition IC50
[10] = Human hepatocytes, read-out: T1/2

Sequence of JAK3 (P52333 781-1124): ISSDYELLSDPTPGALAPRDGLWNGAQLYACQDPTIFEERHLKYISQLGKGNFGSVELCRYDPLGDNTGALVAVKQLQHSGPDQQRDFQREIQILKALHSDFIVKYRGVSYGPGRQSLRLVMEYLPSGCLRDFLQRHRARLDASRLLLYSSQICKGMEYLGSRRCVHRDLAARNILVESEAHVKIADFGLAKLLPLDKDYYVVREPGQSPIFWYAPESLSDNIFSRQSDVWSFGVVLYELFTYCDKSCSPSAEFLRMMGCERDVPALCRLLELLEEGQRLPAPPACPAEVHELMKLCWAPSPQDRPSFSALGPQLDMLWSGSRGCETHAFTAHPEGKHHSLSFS
Sequence of TYK2 kinase (P29597 833-1187): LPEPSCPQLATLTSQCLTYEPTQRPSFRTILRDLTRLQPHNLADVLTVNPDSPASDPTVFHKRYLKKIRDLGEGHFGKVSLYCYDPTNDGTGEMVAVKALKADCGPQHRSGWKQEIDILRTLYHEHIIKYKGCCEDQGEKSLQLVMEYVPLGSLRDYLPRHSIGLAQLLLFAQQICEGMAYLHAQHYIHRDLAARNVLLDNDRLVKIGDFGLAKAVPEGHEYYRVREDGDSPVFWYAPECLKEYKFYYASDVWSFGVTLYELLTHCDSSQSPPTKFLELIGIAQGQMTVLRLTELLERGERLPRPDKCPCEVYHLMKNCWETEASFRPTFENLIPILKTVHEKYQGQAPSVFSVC
Sequence of JAK1 (P23458 866-1154): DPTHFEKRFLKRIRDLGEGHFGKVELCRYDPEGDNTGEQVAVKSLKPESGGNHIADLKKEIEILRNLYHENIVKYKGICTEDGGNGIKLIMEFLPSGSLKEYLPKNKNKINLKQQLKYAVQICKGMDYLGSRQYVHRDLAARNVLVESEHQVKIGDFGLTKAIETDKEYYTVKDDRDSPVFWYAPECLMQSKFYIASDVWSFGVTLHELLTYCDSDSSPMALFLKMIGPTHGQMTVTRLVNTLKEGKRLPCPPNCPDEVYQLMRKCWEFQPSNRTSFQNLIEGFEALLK

half-life [1]: 27 min
half-life [2]: 53.5 min
half-life [3]: 14.8 min
IC50 [4, 9]: 0.053 µM
half-life [5, 10]: 124 min
half-life ([5]; human hepatocytes, read-out: half-life in humans): > 120 min
Structure (SMILES): NC(=O)c1nc(-c2c(Cl)cccc2Cl)oc1Nc1ccc(C(=O)N2CCOCC2)cc1 [Comparative Compound B, 2-(2,6-dichloro-phenyl)-5-[4-(morpholine-4-carbonyl)-phenylamino]-oxazole-4-carboxylic acid amide, reference compound]

half-life [1]: 65.3 min
Selectivity v TYK2: TYK2 (TYK2 kinase): 1
half-life [2]: > 460 min
hepatocyte CLint [2]: < 3 µL/min/1e6 cells
selectivity for TYK2 compared to JAK2 (JAK2; biochemical assays): approximately 25 fold
Selectivity v TYK2: JAK2 (JAK2; ratio of IC50 to TYK2 IC50): 26.3
half-life [3]: 30.6 min
Selectivity v TYK2: JAK1 (JAK1): 10.5
Solubility at 25° C. ([6]; 2-Chlorobutane): < 1 mg/mL
Solubility at 25° C. ([6]; 4:1 THF/water): > 10 mg/mL
Solubility at 25° C. ([6]; Cyclohexane): < 1 mg/mL
Solubility at 25° C. ([6]; DCM): > 10 mg/mL
Solubility at 25° C. ([6]; Nitromethane): > 10 mg/mL
solubility ([6]; TBME): < 1 mg/mL
Solubility at 25° C. ([6]; THF): > 10 mg/mL
Solubility at 25° C. ([6]; Water): < 1 mg/mL
solubility ([6]; anisole): > 10 mg/mL
solubility ([6]; heptane, no peak detected in the chromatogram for the filtrate (×100 dilution)): < 1 mg/mL
selectivity for TYK2 compared to JAK3 (JAK3; biochemical assays): ~110 fold
Selectivity v TYK2: JAK3 (JAK3; ratio of IC50 to TYK2 IC50): 111.6
IC50 ([4]; IL-22 stimulated HT29 cells, read-out: IC50 against pSTAT3 inhibition): < 0.1 µM
IC50 [4, 9]: 0.016 µM
half-life [5, 10]: > 460 min
hepatocyte CLint ([5]; Human hepatocytes): < 3 µL/min/1e6 cells
Structure (SMILES): NC(=O)c1nc(-c2c(Cl)cccc2Cl)oc1Nc1ccc(C(=O)N2CCS(=O)(=O)CC2)cc1 [Compound (1), 2-(2,6-dichlorophenyl)-5-[4-(1,1-dioxo-1,4-thiazinane-4-carbonyl)anilino]oxazole-4-carboxamide]

XRPD examination of the solid isolated post-DVS ([7]; at 0 and 90% RH): no clear evidence of form modification
DVS total weight gain upon sorption ([7]; from 0 to 90% RH, 25° C.): ca. 0.57 wt %
DVS weight reduction upon the first desorption ([7]; from 50 to 0% RH, 25° C.): ca. 0.38 wt %
DVS hysteresis ([7]; repeat desorption and sorption, most evident between 10 and 60% RH): ca. 0.11 wt %
Structure (SMILES): NC(=O)c1nc(-c2c(Cl)cccc2Cl)oc1Nc1ccc(C(=O)N2CCS(=O)(=O)CC2)cc1 [Form B, 2-(2,6-dichlorophenyl)-5-[4-(1,1-dioxo-1,4-thiazinane-4-carbonyl)anilino]oxazole-4-carboxamide]
HPLC assessment post-compression (chemical stability) ([8]; compression for 7 days): no change to the impurity profile; also recorded: no discernible chemical degradation
XRPD examination of solids isolated post-compression (form fate) ([8]; compression for both ca. 1 and 7 days): diffraction pattern matching the input Pattern B but of reduced diffraction resolution
HPLC assessment post-compression (chemical stability) ([8]; compression for ca. 1 day (23 / 23¾ hours), 10×10^4N): no change to the impurity profile; also recorded: no discernible chemical degradation
